Test results taken from patent US12715896B2 (priority 2020, dated 2026).
Non-standard residues stand in square brackets, D forms with d. Residues, ends and D or L forms follow the SMILES beside them. ξ: configuration not given here. *: point of attachment. Nle = CCCC[C@H](N)C(=O)O; Nva = CCC[C@H](N)C(=O)O; Cbz = O=C(OCc1ccccc1)*; ξI = CCC(C)C(N)C(=O)O; OtBu = CC(C)(C)O*

Experiments:
[1] = tested on: SARS-CoV; assay: microbe, parasite or virus in culture; details: Severe acute respiratory syndrome coronavirus, read-out: EC50 against SARS-CoV
[2] = molecular target: EV-A71 3C protease (Human enterovirus 71, UniProt Q66478); assay: biochemical
[3] = in vitro
[4] = tested on: MERS-CoV; assay: microbe, parasite or virus in culture; details: Middle East respiratory syndrome-related coronavirus, read-out: EC50 against MERS-CoV
[5] = tested on: SARS-CoV-2; assay: Antiviral CPE assay against SARS-CoV-2; assay type: cell-based; details: Severe acute respiratory syndrome coronavirus 2
[6] = molecular target: EV-A71 2A protease (Human enterovirus 71, UniProt Q66478); assay: biochemical; details: for IC50: read-out: EVA71 2A IC50
[7] = tested on: A/California/07/2009 (H1N1); assay: Counter screening against influenza virus in plaque assay; assay type: cell-based; details: read-out: Antiviral activity against A/California/07/2009 (H1N1)
[8] = Cytotoxicity CPE assay (neutral red), A549; assay type: cell-based; details: human, A549 cells, mean ± S.E.
[9] = Cytotoxicity CPE assay (neutral red), MDCK; assay type: cell-based; details: dog, MDCK cells, mean ± S.E.
[10] = Cytotoxicity CPE assay (neutral red), Caco-2; assay type: cell-based; details: human, Caco-2 cells, mean ± S.E.
[11] = Cytotoxicity CPE assay (neutral red), BEAS2B; assay type: cell-based; details: human, BEAS2B cells, mean ± S.E.
[12] = Cytotoxicity CPE assay (neutral red), HCT-8; assay type: cell-based; details: human, HCT-8 cells, mean ± S.E.
[13] = Cellular cytotoxicity in multiple cell lines; details: human, dog, African green monkey
[14] = Antiviral CPE assay against SARS-CoV-2; assay type: cell-based
[15] = in vitro; remark: listed apart in the source
[16] = Cytotoxicity CPE assay (neutral red), Vero; assay type: cell-based; details: African green monkey, Vero cells, mean ± S.E.
[17] = molecular target: SARS-CoV 3CL^pro (Severe acute respiratory syndrome coronavirus, UniProt P0C6X7); details: read-out: IC50 against the SARS-CoV 3CL^pro; cited from earlier work

Sequence of EV-A71 3C protease (Q66478 1549-1731): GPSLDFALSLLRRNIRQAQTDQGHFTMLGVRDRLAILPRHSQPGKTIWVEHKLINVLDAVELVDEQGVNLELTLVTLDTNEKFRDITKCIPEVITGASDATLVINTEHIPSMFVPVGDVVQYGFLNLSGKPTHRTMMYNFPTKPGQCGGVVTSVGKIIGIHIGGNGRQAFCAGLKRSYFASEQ
Sequence of EV-A71 2A protease (Q66478 863-1012): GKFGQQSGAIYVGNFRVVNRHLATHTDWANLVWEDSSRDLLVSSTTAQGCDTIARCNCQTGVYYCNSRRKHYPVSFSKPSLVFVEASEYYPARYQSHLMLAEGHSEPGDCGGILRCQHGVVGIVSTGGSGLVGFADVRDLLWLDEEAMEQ

SMILES: CC(C)(C)NC(=O)N[C@H](C(=O)N1C[C@H]2[C@@H]([C@H]1C(=O)NC(CC1CCC1)C(=O)C(N)=O)C2(C)C)C(C)(C)C (some centres unmarked) [Boceprevir (28), Boceprevir]
- EC50 [1]: > 47 µM
- IC50 [2]: > 20 µM
- CC50 [3]: > 47 µM
- EC50 [4]: > 100 µM
- EC50 [5]: 1.9 µM
- IC50 [6]: > 20 µM
- EC50 [7]: > 20 µM

SMILES: CCCC[C@@H](C=O)NC(=O)[C@H](CC(C)C)NC(=O)[C@H](CC(C)C)NC(C)=O [Calpain inhibitor 1 (ALLN) (59), Calpain inhibitor 1] (Ac-Leu-Leu-[Nle]-aldehyde)
- IC50 [2]: > 20 µM
- IC50 [6]: > 20 µM

SMILES: CSCC[C@@H](C=O)NC(=O)[C@H](CC(C)C)NC(=O)[C@H](CC(C)C)NC(C)=O [Calpain inhibitor II (61), Calpain inhibitor II] (Ac-Leu-Leu-Met-aldehyde)
- EC50 [1]: 3.6 µM
- IC50 [2]: > 20 µM
- CC50 at 48 h [8]: > 100 µM
- CC50 [3]: > 100 µM
- CC50 at 48 h [9]: > 100 µM
- CC50 at 48 h [10]: > 100 µM
- CC50 at 48 h [11]: > 100 µM
- CC50 at 48 h [12]: > 100 µM
- EC50 [4]: 14 µM
- CC50 at 48 h [13]: > 100 µM
- CC50 [14]: > 100 µM
- EC50 [5]: 1.2 µM
- IC50 [6]: > 20 µM
- CC50 [15]: > 100 µM
- CC50 at 48 h [16]: > 100 µM
- EC50 [7]: > 20 µM

SMILES: CC(C)C[C@@H](C=O)NC(=O)[C@@H](NS(=O)(=O)c1ccc(F)cc1)C(C)C [Calpain inhibitor VI (58), Calpain inhibitor VI]
- IC50 [2]: > 20 µM

SMILES: CCC[C@H](NC(=O)[C@H](CC(C)C)NC(=O)OCc1ccccc1)C(=O)C(=O)NCc1ccccn1 [Calpain inhibitor XII (62), Calpain inhibitor XII]
- EC50 [1]: 7.4 µM
- IC50 [2]: > 20 µM
- CC50 at 48 h [8]: > 100 µM
- CC50 at 48 h [9]: 60.4 ± 2.28 µM
- CC50 at 48 h [10]: 82.02 ± 0.37 µM
- CC50 at 48 h [11]: 78.9 ± 13.7 µM
- CC50 at 48 h [12]: 73.3 ± 11.8 µM
- EC50 [4]: 7.9 µM
- CC50 at 48 h [13]: > 50 µM
- CC50 [14]: > 50 µM
- EC50 [5]: 0.3 µM
- IC50 [6]: > 20 µM
- CC50 at 48 h [16]: > 100 µM
- EC50 [7]: > 20 µM

SMILES: CCCC[C@@H](C=O)NC(=O)[C@H](CC(C)C)NC(=O)OCc1ccccc1 [Calpeptin (56), Calpeptin]
- IC50 [2]: > 20 µM
- IC50 [6]: > 20 µM

SMILES: CC(C)C[C@H](NC(=O)OCc1ccccc1)C(=O)N[C@@H](C[C@@H]1CCNC1=O)C(O)S(=O)(=O)[O-].[Na+] (some centres unmarked) [GC-376 (64), GC-376]
- IC50 [2]: 0.136 ± 0.025 µM
- inhibition against the EV-A71 3C protease [2]: potent inhibition
- CC50 at 48 h [8]: > 100 µM
- CC50 [3]: > 100 µM
- CC50 at 48 h [9]: > 100 µM
- CC50 at 48 h [10]: > 100 µM
- CC50 at 48 h [11]: > 100 µM
- CC50 at 48 h [12]: > 100 µM
- CC50 at 48 h [13]: > 100 µM
- CC50 [14]: > 100 µM
- EC50 [5]: 1.9 µM
- activity against the EV-A71 2A protease [6]: not active
- IC50 [6]: > 20 µM
- CC50 [15]: > 100 µM
- CC50 at 48 h [16]: > 100 µM
- EC50 [7]: > 20 µM

SMILES: CCC[C@@H](C=O)NC(=O)[C@H](CC(C)C)NC(=O)[C@H](CC(C)C)NC(=O)OCc1ccccc1 [MG-115 (60), MG-115] (Cbz-Leu-Leu-[Nva]-aldehyde)
- IC50 [2]: > 20 µM
- IC50 [6]: > 20 µM

SMILES: CC(C)C[C@@H](C=O)NC(=O)[C@H](CC(C)C)NC(=O)[C@H](CC(C)C)NC(=O)OCc1ccccc1 [MG-132 (43), MG-132] (Cbz-Leu-Leu-Leu-aldehyde)
- EC50 [1]: > 0.7 µM
- IC50 [2]: > 20 µM
- CC50 [3]: > 0.7 µM
- EC50 [4]: > 10 µM
- EC50 [5]: 0.87 µM
- IC50 [6]: > 20 µM

SMILES: CCCC[C@H](NC(=O)[C@@H]1[C@@H]2[C@H](CN1C(=O)[C@@H](NC(=O)NC1(CS(=O)(=O)C(C)(C)C)CCCCC1)C(C)(C)C)C2(C)C)C(=O)C(=O)NC1CC1 [Narlaprevir (29), Narlaprevir]
- IC50 [2]: > 20 µM
- IC50 [6]: > 20 µM

SMILES: CCC(C)C(NC(=O)OCc1ccccc1)C(=O)N[C@@H](CCC(=O)OC(C)(C)C)C(=O)N[C@@H](C)C(=O)N[C@H](C=O)CC(C)C (some centres unmarked) [PSI (63), PSI] (Cbz-[ξI]E(OtBu)AL-aldehyde)
- IC50 [2]: 13.7 ± 3.86 µM
- IC50 [6]: 1.22 µM

SMILES: CCOC(=O)/C=C/[C@H](C[C@@H]1CCNC1=O)NC(=O)[C@@H](CC(=O)[C@@H](NC(=O)c1cc(C)on1)C(C)C)Cc1ccc(F)cc1 [Rupintrivir (65), Rupintrivir]
- IC50 [2]: 0.042 ± 0.014 µM
- inhibition against the EV-A71 3C protease [2]: potent inhibition
- IC50 [17]: > 100 µM
- activity against the EV-A71 2A protease [6]: not active
- IC50 [6]: > 20 µM
